Measured values: US10953027B2, “Active agents and methods of their use for the treatment of metabolic disorders and nonalcoholic fatty liver disease” (Flagship Pioneering Innovations V, Inc., priority 2018, dated 2021)

Tests used:
[1] = Assay 3. Fecal Incubation Stability; type: in vitro ADME; settings: 1 or 10 μM, human fecal slurry, anaerobic
Male FATZO mice = assay: In vivo FATZO DM2/obesity study (Example 5); settings: in HFD ad libitum, after 28 days; blood glucose 0-120 minutes
Procedure: Male FATZO mice (Crown Bio) of 11-12 weeks old were selected for Diabetes Mellitus Type 2 (DM2) and obesity study. Mice were randomized into 9 groups based on body weight and blood glucose level as shown below. Compounds were administered in high fat diet (HFD: D12492) and provided to mice ad libitum until study termination. Body weight was recorded at the baseline and then twice weekly thereafter. Blood glucose level was measured at 0, 15, 30, 60, 90, and 120 minutes at the end of the study.

Male DIO mice = assay: In vivo evaluation for glucose disposal and lipidemia in DIO mice (Example 11); settings: for change in body weight from baseline: 30 days; for Cholesterol / HDL / LDL / NEFA / Triglycerides: terminal (fed) serum; for Fasting blood glucose levels (time 0 from OGTT): 28 days, 16 hour fast; for glucose AUC (0-120 min): OGTT day 28, glucose 2.0 g/kg PO
Procedure: The DIO mice were prepared by feeding male C57BL/6 mice a high fat diet (HFD, Research Diets D12492) from 6-14 weeks of age. DIO mice were housed individually and maintained on the HFD through the duration of study. A twelve-hour light cycle was maintained with room temperature maintained at 22-25° C. All of the mice were acclimated to the facility for 5 days prior to starting the study.
Following 5 days of facility acclimation, DIO mice were randomized into 8 groups of 10 based on body weight and blood glucose for assignment to treatment, as shown in Table 9:
All treatments were administered admixed in HFD (Research Diets, New Brunswick N.J.) and were provided ad libitum for 30 days. Drinking water for group 7 was supplemented with 1, 3 Butanediol at 3% concentration.
Body weight was recorded at baseline and twice weekly thereafter. Feed and water intakes were recorded each Monday, Wednesday, and Friday.
Blood samples (<3 μL) were obtained one hour post dose by tail clip at baseline and weekly thereafter for measurement of fed blood glucose by StatStrip. Additional anti-coagulated blood samples (100 μl, EDTA di-potassium salt) were obtained by tail clip one hour post-dose at baseline, day 14 and day 30. Anti-coagulated samples were quick frozen and stored on dry ice.
Animals were subjected to a 16 hour fast for performance of an oral glucose tolerance test (OGTT) on day 28. Blood samples were obtained via tail clip just prior to (8 am) and 15, 30, 60, 90, and 120 minutes post-glucose load (2.0 g/kg, PO) for assay of whole blood glucose (StatStrip). Feed was returned following last sample.
Animals were terminated on day 30-31 using CO2 inhalation and induction of pneumothorax. Terminal blood samples were obtained by cardiac puncture. Whole blood was processed to serum and analyzed for serum cholesterol, triglycerides, high density lipoprotein (HDL), low density lipoprotein (LDL) and non-esterified fatty acids (NEFA) using AU480 clinical analyzer.
Organ weights (liver, spleen, subcutaneous fat, inguinal fat, abdominal fat, and epididymal fat) were recorded. Sections of each fat were frozen or fixed in 4% paraformaldehyde/PBS, pH 6.9; Fat samples were placed on dry ice. Fixed liver samples (4% paraformaldehyde) were sent to Premier Laboratories for H&E staining and scoring for steatosis, inflammation and fibrosis. Spleen samples were prepared in ice cold 5% bovine serum albumin (BSA) in PBS or 4% paraformaldehyde. Sections of brain, heart, lung, and small and large intestine were fixed in 10% formalin.
All data are represented as group mean±SEM. Data were analyzed using JMP (SAS software). All normalizations were calculated using terminal body weight.
Baseline differences among groups were identified using Tukey-Kramer Hsd<0.05. Treatment effects compared to control were determined using Oneway ANOVA (*, p<0.05) followed by Dunnett's test where appropriate.

HFD-fed C57BL/6 mice = assay: In vivo evaluation in HFD-fed C57BL/6 mice (Example 3); settings: 6% in HFD ad libitum, 8 week
Procedure: Animals were allowed free access to food and drinking water for the entire 8 week study. Animals were weighed on a weekly basis, and food and drinking water consumption monitored. Plasma and stool samples were collected at the beginning of the study, mid-study, and day of termination. These samples were used for the measurement of the disease makers.
Disease markers were also assessed in liver tissues collected from mice as follows. Liver tissues from mice were collected, fixed by immersion in 10% neutral buffered formalin. Fixed tissue specimens were sent to a histological processing laboratory (Premier Laboratory, Longmont, Colo.), where they were paraffin embedded, sectioned (approximately 4 μm), mounted, and stained with hematoxylin and eosin (H&E) using standard methods.
Liver sections (2) for each animal were scored from a scan of the H&E-stained slide for inflammation, steatosis (macrovesicular vacuolation) and ballooning ([…] vacuolation) using a modified grading scale based on human biopsy scoring (Brunt et al., Am J Clin Pathol, 128:837-47, 2007). Inflammation was scored 0=no inflammation, 1=minimal (1-3 foci of scattered (lobar) inflammatory cells), 2=mild (3 to 10 scattered foci of inflammatory cells with or without portal/periportal inflammation), 3=moderate (>10 scattered (lobar) foci of inflammatory cells and/or marked portal/periportal inflammation. Steatosis was graded (as in Brunt et al., Am J Clin Pathol, 128:837-47, 2007) as follows: 0=no steatosis, grade 1: ≤33%; grade 2: >33%, <66%; 3: ≥66%. Ballooning was scored as follows: 0=no ballooning, 1=rare/few, and 2=many hepatocytes with microvesicular vacuolation.

CC(=O)Oc1cc(OC(C)=O)c2c(c1)O[C@H](c1cc(OC(C)=O)c(OC(C)=O)c(OC(C)=O)c1)[C@H](OC(=O)c1cc(OC(C)=O)c(OC(C)=O)c(OC(C)=O)c1)C2 [Compound 4, [(2R,3R)-5,7-diacetoxy-2-(3,4,5-triacetoxyphenyl)chroman-3-yl] 3,4,5-triacetoxybenzoate]
Assay 3 (% Remaining at 24 h) [1]: A (A: <25% of the tested compound remaining)
OGTT (AUC) (Male FATZO mice): 59443
Abdominal fat (% BW) (Male DIO mice; 0.6% in HFD): 2.1 ± 0.2 % BW
Blood glucose (fed) change compared to baseline (Male DIO mice; 0.6% in HFD): −15.6±3.1%
Epididymal fat (% BW) (Male DIO mice; 0.6% in HFD): 4.7 ± 0.2 % BW
Inguinal fat (% BW) (Male DIO mice; 0.6% in HFD): 0.99 ± 0.17 % BW
Subcutaneous fat (% BW) (Male DIO mice; 0.6% in HFD): 4.9 ± 0.4 % BW
change in body weight from baseline (Male DIO mice; 0.6% in HFD): 13.5±2.0%
Abdominal fat (% BW) (Male DIO mice; 2% in HFD): 2.4 ± 0.1 % BW
Blood glucose (fed) change compared to baseline (Male DIO mice; 2% in HFD): −9.0±3.9%
Epididymal fat (% BW) (Male DIO mice; 2% in HFD): 4.5 ± 0.2 % BW
Inguinal fat (% BW) (Male DIO mice; 2% in HFD): 0.93 ± 0.08 % BW
Subcutaneous fat (% BW) (Male DIO mice; 2% in HFD): 5.5 ± 0.5 % BW
change in body weight from baseline (Male DIO mice; 2% in HFD): 16.4±1.1%
Abdominal fat (% BW) (Male DIO mice; 6% in HFD): 2.2 ± 0.1 % BW
Blood glucose (fed) change compared to baseline (Male DIO mice; 6% in HFD): −4.3±3.0%
Epididymal fat (% BW) (Male DIO mice; 6% in HFD): 4.7 ± 0.3 % BW
Inguinal fat (% BW) (Male DIO mice; 6% in HFD): 0.95 ± 0.08 % BW
Subcutaneous fat (% BW) (Male DIO mice; 6% in HFD): 5.0 ± 0.6 % BW
change in body weight from baseline (Male DIO mice; 6% in HFD): 15.7±1.0%
Cholesterol (Male DIO mice; 0.6% in HFD): 193.9 ± 11.0 mg/dL
HDL (Male DIO mice; 0.6% in HFD): 94.4 ± 4.0 mg/dL
LDL (Male DIO mice; 0.6% in HFD): 9.2 ± 0.9 mg/dL
NEFA (Male DIO mice; 0.6% in HFD): 1.2 ± 0.04 mEq/L
Triglycerides (Male DIO mice; 0.6% in HFD): 97.7 ± 10.1 mg/dL
Cholesterol (Male DIO mice; 2% in HFD): 208.2 ± 7.2 mg/dL
HDL (Male DIO mice; 2% in HFD): 99.0 ± 3.6 mg/dL
LDL (Male DIO mice; 2% in HFD): 10.7 ± 0.9 mg/dL
NEFA (Male DIO mice; 2% in HFD): 1.2 ± 0.06 mEq/L
Triglycerides (Male DIO mice; 2% in HFD): 91.1 ± 8.4 mg/dL
Cholesterol (Male DIO mice; 6% in HFD): 200.4 ± 14.2 mg/dL
HDL (Male DIO mice; 6% in HFD): 91.5 ± 5.1 mg/dL
LDL (Male DIO mice; 6% in HFD): 12.3 ± 0.9 mg/dL
NEFA (Male DIO mice; 6% in HFD): 1.1 ± 0.04 mEq/L
Triglycerides (Male DIO mice; 6% in HFD): 89.9 ± 5.7 mg/dL
ballooning score (FIG. 4) (HFD-fed C57BL/6 mice): lower ballooning score than the animals fed a high fat diet only
glucose tolerance (FIG. 2) (HFD-fed C57BL/6 mice): exceeded that of animals in the HFD+rosiglitazone
histological analysis of the livers: steatosis (FIGS. 5A-5G) (HFD-fed C57BL/6 mice): significantly lower steatosis
percentage change in weight (FIG. 1) (HFD-fed C57BL/6 mice): underwent weight loss
steatosis score (FIG. 3) (HFD-fed C57BL/6 mice): lower steatosis score than the animals fed high fat diet only

CC(=O)Oc1cc(OC(C)=O)c2c(=O)c(OC(C)=O)c(-c3ccc(OC(C)=O)c(OC(C)=O)c3)oc2c1 [Compound 14, [2-acetoxy-4-(3,5,7-triacetoxy-4-oxo-chromen-2-yl)phenyl] acetate]
OGTT (AUC) (Male FATZO mice): 65323
Abdominal fat (% BW) (Male DIO mice; 6% in HFD): *0.98 ± 0.2 % BW
Blood glucose (fed) change compared to baseline (Male DIO mice; 6% in HFD): −23.1±4.9%
Epididymal fat (% BW) (Male DIO mice; 6% in HFD): *2.6 ± 0.3 % BW
Inguinal fat (% BW) (Male DIO mice; 6% in HFD): *0.40 ± 0.06 % BW
Subcutaneous fat (% BW) (Male DIO mice; 6% in HFD): *2.2 ± 0.4 % BW
Fasting blood glucose levels (time 0 from OGTT) (Male DIO mice; 6% in HFD): 63.1 ± 1.9 mg/dL
change in body weight from baseline (Male DIO mice; 6% in HFD): −11.9±1.3%
glucose AUC (0-120 min) (Male DIO mice; 6% in HFD): 25720.5 ± 895.5 mg/dL/min
Cholesterol (Male DIO mice; 6% in HFD): *121.5 ± 9.4 mg/dL
HDL (Male DIO mice; 6% in HFD): 79.4 ± 4.0 mg/dL
LDL (Male DIO mice; 6% in HFD): *4.9 ± 0.4 mg/dL
NEFA (Male DIO mice; 6% in HFD): *0.69 ± 0.03 mEq/L
Triglycerides (Male DIO mice; 6% in HFD): *64.0 ± 2.8 mg/dL

CC(=O)O[C@H]1OC[C@H](OC(C)=O)[C@H](OC(C)=O)[C@H]1OC(C)=O [Compound 53, (2R,3R,4S,5S)-tetrahydro-2H-pyran-2,3,4,5-tetrayl Tetraacetate]
Assay 3 (% Remaining at 24 h) [1]: A (A: <25% of the tested compound remaining)
Abdominal fat (% BW) (Male DIO mice; 5% in HFD): *1.9 ± 0.2 % BW
Blood glucose (fed) change compared to baseline (Male DIO mice; 5% in HFD): −12.5±2.2%
Epididymal fat (% BW) (Male DIO mice; 5% in HFD): 4.1 ± 0.4 % BW
Inguinal fat (% BW) (Male DIO mice; 5% in HFD): 0.84 ± 0.11 % BW
Subcutaneous fat (% BW) (Male DIO mice; 5% in HFD): 4.0 ± 0.6 % BW
Fasting blood glucose levels (time 0 from OGTT) (Male DIO mice; 5% in HFD): 90.8 ± 5.7 mg/dL
change in body weight from baseline (Male DIO mice; 5% in HFD): −1.8±3.2%
glucose AUC (0-120 min) (Male DIO mice; 5% in HFD): 30151.5 ± 1680 mg/dL/min
Cholesterol (Male DIO mice; 5% in HFD): 163.3 ± 10.3 mg/dL
HDL (Male DIO mice; 5% in HFD): 88.9 ± 2.7 mg/dL
LDL (Male DIO mice; 5% in HFD): *6.5 ± 0.7 mg/dL
NEFA (Male DIO mice; 5% in HFD): *0.98 ± 0.05 mEq/L
Triglycerides (Male DIO mice; 5% in HFD): 84.8 ± 5.5 mg/dL
